Data set [1] is described as follows: Colony survival, ola with or without RTX-161 (source data sheet Fig. 2 c; cell line not given). It counts as cell-based. Particulars: ola 0.125 um, RTX-161 0 uM.
The test system of data set [2] is CAPAN-1 cells. The data set is described as follows: Clonogenic assay. It counts as cell-based. Particulars: Capan-1 cells, vehicle. Here is the method:
(§1) Cells were plated on six or twelve or twenty-four well plates. In six well plate, 1000 cells/ well of BRCA2 -/-, BRCA1 -/-, PALB2 mut and 500 cells/ well of wildtype pair was plated; In twelve well plate, 600 cells/ well of BRCA2 -/-, BRCA1 -/-, PALB2 mut and 400 cells/ well of wildtype pair was plated; In twenty-four well plate, 500 cells/ well of BRCA2 -/-, BRCA1 -/-, PALB2 mut and 300 cells/ well of wildtype pair was plated. For MEFs, 300 cells per well in six-well plate were seeded. The medium was replaced every 2 days until the colonies were ready for staining in 10–12 days. For staining: Medium was removed from plates, and cells were rinsed with PBS. Fixation was carried out with—Water: Ethanol: Acetic acid (5:4:1) for 30 min followed by staining of colonies with 0.5% crystal violet in Water: Ethanol (3:2) for 2 h at room temperature. The plates were rinsed with water and left for drying overnight at room temperature. Colonies were then counted and IC50 was calculated using results from 3 or more independent experiments. Response curves are shown as mean colony formation +/- S.E.M.
(§2) Data are expressed as mean ± SEM from at least 3 independent experiments with triplicates for each condition unless stated otherwise. When conducting comparison between two groups, two-tailed unpaired t-test was used. Significance was assumed at p < 0.05. Asterisks in the figures indicate significance, ^∗p < 0.05, ^∗∗p < 0.01, ^∗∗∗p < 0.001. Combenefit® software version 2.021 was used to perform synergy analyses for drug combinations between RTx-161 and PARPi. GraphPad Prism 9 software was used to calculate IC50.

Data set [3] deals with VC8 cells. The data set is described as follows: Clonogenic assay. It counts as cell-based, Chinese hamster. As to conditions: VC8 cells, vehicle. The protocol:
as §1, §2

A short description of data set [4]: Colony survival, ola with or without RTX-161 (source data sheet Fig. 2 b; cell line not given). It counts as cell-based. Particulars: vehicle.
Data set [5] deals with T1, Polθ-pol (Homo sapiens, UniProt O75417).
T1 construct: purified recombinant human Polθ-pol (comprising amino acid residues 1792–2590); made in house
T1 sequence (O75417 1792-2590): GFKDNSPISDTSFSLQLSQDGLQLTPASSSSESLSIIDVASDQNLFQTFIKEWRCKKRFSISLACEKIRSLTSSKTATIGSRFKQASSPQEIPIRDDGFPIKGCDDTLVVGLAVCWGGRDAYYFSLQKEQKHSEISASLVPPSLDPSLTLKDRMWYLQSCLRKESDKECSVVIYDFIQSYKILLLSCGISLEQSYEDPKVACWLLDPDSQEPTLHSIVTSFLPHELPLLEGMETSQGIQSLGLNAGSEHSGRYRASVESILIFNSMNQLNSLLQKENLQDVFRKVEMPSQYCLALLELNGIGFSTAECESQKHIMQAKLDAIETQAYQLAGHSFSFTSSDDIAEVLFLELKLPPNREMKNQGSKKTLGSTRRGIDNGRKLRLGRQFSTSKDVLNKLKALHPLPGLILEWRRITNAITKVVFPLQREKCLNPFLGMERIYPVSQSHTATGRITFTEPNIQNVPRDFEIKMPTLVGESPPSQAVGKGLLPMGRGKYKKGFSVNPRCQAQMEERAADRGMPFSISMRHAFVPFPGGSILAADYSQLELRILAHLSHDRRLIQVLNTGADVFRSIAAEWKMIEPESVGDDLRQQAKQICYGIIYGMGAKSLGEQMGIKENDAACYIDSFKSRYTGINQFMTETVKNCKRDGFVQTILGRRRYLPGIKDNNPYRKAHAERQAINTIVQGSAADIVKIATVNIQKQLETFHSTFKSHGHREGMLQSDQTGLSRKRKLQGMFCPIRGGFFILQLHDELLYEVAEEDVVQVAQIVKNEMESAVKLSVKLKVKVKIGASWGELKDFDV
The data set is described as follows: Cy5 fluorescence Polθ-pol DNA synthesis (strand displacement) IC50 assay. It counts as biochemical. Particulars: Polθ-pol DNA synthesis, Cy5 fluorescence. The protocol: The following Cy5 fluorescence assay was used to measure the ability of compounds to inhibit Polθ-pol in vitro. The fluorescent based assay was performed as follows: 60 nM of the pre-annealed primer-template containing a 5’ Cy5 fluorophore conjugated template strand (RP486-Cy5), a downstream complementary oligo conjugated with a 3’ Iowa BlackReg Dark quencher (RP343BHQRQ) and a primer strand (RP469D) was mixed with 50 uM 2'-deoxyribonucleoside triphosphates (dNTPs), 0.1 mg/mL Bovine serum albumin (BSA), 0.01% NP-40, 10% glycerol, 1 mM dithiothreitol (DTT), 10 mM MgCl2, 25 mM TrisHCl pH 7.8 in the presence of 2.5% DMSO with or without various concentrations (7-point dilution series) of Polθ-pol small-molecule inhibitors at 37 °C in a volume of 40 μL. The reactions were initiated by the addition of 5 nM of purified recombinant human Polθ-pol (comprising amino acid residues 1792–2590). The reactions were terminated by the addition of 20 mM EDTA after 18 min, and the Cy5 fluorescence intensity was measured using a CLARIOstar (BMG Labtech) plate reader. Reactions were performed in triplicate and the % inhibition at each concentration of the respective compound of Formula I was based on the mean.

The nature of data set [6]: Solubility (2% DMSO/PBS). It counts as physicochemical. Particulars: aqueous buffer, kinetic from dmso stock.
A short description of data set [7]: Metabolic stability in liver microsomes. It counts as in vitro ADME. As to conditions: read-out: t1/2 liver microsomes.
Data set [8] addresses Fl-Polθ (UniProt O75417 1-2590). The data set can be described thus: EcoRI endonuclease protection with unlabeled DNA trap; RTx-152, ddCTP; i+1 complex fully resistant; Endonuclease protection buffer not in the material; crystals: 0.24 M Na citrate, 18% PEG 3350, 0.1 M Bis Tris propane pH 7.5, with 1 mM MgCl2, 1 mM ddGTP, 20 mM spermine in the complex mix. As to conditions: protein: recombinant; label: 32P (5'); 5' overhang 12 nt on template; 14 bp duplex.

The target of data set [9] is T2, Polθ-pol (human, UniProt O75417 1792-2590).
T2 sequence: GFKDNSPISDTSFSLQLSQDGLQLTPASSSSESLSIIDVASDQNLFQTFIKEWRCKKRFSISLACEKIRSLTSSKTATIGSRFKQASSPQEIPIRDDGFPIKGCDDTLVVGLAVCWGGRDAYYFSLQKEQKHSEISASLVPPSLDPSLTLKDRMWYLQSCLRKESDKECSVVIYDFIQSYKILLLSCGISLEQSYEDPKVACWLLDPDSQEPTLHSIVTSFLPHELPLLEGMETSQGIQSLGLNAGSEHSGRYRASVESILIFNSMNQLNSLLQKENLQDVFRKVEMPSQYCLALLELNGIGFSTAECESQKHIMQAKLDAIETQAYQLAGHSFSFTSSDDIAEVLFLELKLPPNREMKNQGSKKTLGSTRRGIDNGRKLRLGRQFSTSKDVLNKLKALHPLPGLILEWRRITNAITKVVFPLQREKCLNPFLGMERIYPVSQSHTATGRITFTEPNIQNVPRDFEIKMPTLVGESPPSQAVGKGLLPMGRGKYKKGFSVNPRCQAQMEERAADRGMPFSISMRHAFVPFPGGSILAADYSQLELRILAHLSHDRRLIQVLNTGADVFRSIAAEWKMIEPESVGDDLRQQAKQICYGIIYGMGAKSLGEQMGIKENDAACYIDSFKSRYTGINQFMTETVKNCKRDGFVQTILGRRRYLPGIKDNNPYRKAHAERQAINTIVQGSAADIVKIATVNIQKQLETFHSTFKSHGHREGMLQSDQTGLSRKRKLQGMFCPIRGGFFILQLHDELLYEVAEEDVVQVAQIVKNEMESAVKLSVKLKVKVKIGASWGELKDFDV
The data set is described as follows: EcoRI endonuclease protection with unlabeled DNA trap; RTx-161, ddCTP; cleavage suppressed >10 min; Endonuclease protection buffer not in the material; crystals: 0.24 M Na citrate, 18% PEG 3350, 0.1 M Bis Tris propane pH 7.5, with 1 mM MgCl2, 1 mM ddGTP, 20 mM spermine in the complex mix. As to conditions: protein: recombinant; label: 32P (5'); 5' overhang 12 nt on template; 14 bp duplex.

Data set [10] deals with T3, PolθΔL (Polθ-pol, five loops replaced) (UniProt O75417 …, internal_change).
T3 sequence: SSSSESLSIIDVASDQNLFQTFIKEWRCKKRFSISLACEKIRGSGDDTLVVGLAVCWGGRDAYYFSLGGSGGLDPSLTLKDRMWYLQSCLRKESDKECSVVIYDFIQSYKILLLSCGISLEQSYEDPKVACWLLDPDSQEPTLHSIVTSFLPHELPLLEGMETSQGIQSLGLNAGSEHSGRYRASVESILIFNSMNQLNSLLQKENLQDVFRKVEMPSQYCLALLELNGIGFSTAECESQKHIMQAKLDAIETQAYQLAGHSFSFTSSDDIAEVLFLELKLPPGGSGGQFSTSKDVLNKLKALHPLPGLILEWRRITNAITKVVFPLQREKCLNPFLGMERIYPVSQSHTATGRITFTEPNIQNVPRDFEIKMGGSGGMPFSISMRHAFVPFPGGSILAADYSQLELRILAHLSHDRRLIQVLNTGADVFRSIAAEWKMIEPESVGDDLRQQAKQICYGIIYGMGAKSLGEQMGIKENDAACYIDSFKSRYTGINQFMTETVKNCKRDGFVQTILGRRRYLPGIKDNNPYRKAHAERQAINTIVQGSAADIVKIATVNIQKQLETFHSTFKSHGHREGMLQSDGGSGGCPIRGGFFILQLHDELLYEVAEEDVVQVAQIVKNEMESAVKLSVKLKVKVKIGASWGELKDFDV
The data set is described as follows: X-ray crystallography, 3.24 Å; RTx-152, ddGTP, Mg2+; closed conformation; Endonuclease protection buffer not in the material; crystals: 0.24 M Na citrate, 18% PEG 3350, 0.1 M Bis Tris propane pH 7.5, with 1 mM MgCl2, 1 mM ddGTP, 20 mM spermine in the complex mix. Particulars: protein: recombinant; tags: 6xHis-SUMO removed with PreScission protease; 5' overhang 10 nt on template; 14 bp duplex.

This is an account of results in paper PMC10997755, “Discovery of a small-molecule inhibitor that traps Polθ on DNA and synergizes with PARP inhibitors” (Nature Communications, 2024).

≈ marks a conversion by molar mass, not a printed value. Where “and” joins values, the source holds several entries; their conditions need not be identical. Equal entries are not always repeated.

Regarding `O=C(c1cc(Cc2n[nH]c(=O)c3ccccc23)ccc1F)N1CCN(C(=O)C2CC2)CC1` [ola], the percent suvival is 53.6122% and 69.9422% and 40.4494% in [1]; 35.7622% in [2] (ola 0.041 micro M, experiment block 1 (c0-c9)); 95.0051% in [2] (ola 0.041 micro M, experiment block 2 (c10-c19)); 99.322% in data set [2] (ola 0.041 micro M, experiment block 3 (c20-c29)); 20.5479% in data set [2] (ola 0.123 micro M, experiment block 1 (c0-c9)); 86.264% in [2] (ola 0.123 micro M, experiment block 2 (c10-c19)). In addition, the percent suvival in data set [2] (ola 0.123 micro M, experiment block 3 (c20-c29)) came to 101.808%; in [2] (ola 0.37 micro M, experiment block 1 (c0-c9)), 15.0785%; in data set [2] (ola 0.37 micro M, experiment block 2 (c10-c19)), 58.3758%; in data set [2] (ola 0.37 micro M, experiment block 3 (c20-c29)), 61.807%; in [2] (ola 1.11 micro M, experiment block 1 (c0-c9)), 13.2577%; in [2] (ola 1.11 micro M, experiment block 2 (c10-c19)), 54.2134%. For the same molecule, the percent suvival in [2] (ola 1.11 micro M, experiment block 3 (c20-c29)) is 43.0496%; in data set [3] (ola 1.875 nano M), 82.1918% and 93.3333% and 61.7978%; in data set [3] (ola 30.00 nano M), 0%; in data set [4] (ola 7.9 nano M), 85.0909% and 53.0303% and 63.9535%; in data set [4] (ola 11.8 nano M), 61.0909%; in data set [4] (ola 17.70 nano M) it was 49.2424% and 44.186% and 51.6364%. Also, the percent suvival is 49.0909% in data set [4] (ola 26.60 nano M); 44.7273% and 28.7879% and 31.9767% in data set [4] (ola 40.00 nano M); 38.5455% in data set [4] (ola 60.00 nano M); 15.1515% and 16.8605% and 24.3636% in data set [4] (ola 90.00 nano M).

The molecule `CN(C(=O)Oc1c(Cl)cc(Cl)c2cccnc12)c1ccccc1` [MC280003] returned an IC50 in [5] of 0.16 µM. Further, in data set [6], the solubility was 21 µM (≈ 7.29 µg/mL). For the same molecule, in [7], the half-life worked out at 1.5 min.

B1: LM3-EcoRI/LM4-EcoRI primer-template (dsDNA)
DNA 1: CGGCGAATTCGCAG
DNA 2: AGTAAGAGAACGCTGCGAATTCGCCG
In the case of B1, the binding result in [8] and in [9] was “binds” throughout.

B2: crystallization primer-template (dsDNA)
DNA 1: CGACGTCGCAGCGC
DNA 2: GCGAGACTCCGCGCTGCGACGTCG
For B2, in [10], the binding result is “binds”.
